Experimental data taken from article PMC13249053, “Mechanism of auranofin toxicity: Inhibition of tetrahydrobiopterin metabolism” (Toxicology and applied pharmacology, 2025).

System: BH4 formation in HaCaT cells
Experiment: BH4 formation from sepiapterin in intact HaCaT cells (HPLC)
Type: cell-based, human
Settings: MTX 1 μM, 2 h, then 200 μM sepiapterin 3 h; BH2 accumulates
Description: The growth medium was then removed and the cells incubated with growth medium containing 100 μM sepiapterin. […] BH2 and BH4 were then analyzed on a Jasco high-performance liquid chromatography system (Easton, MD) fitted with a Maxsil-10 C18 column (250 × 4 mm; Phenomenex, Torrance, CA). […] Cell viability following drug treatments was greater than 95 %.
Fig. 3. Effects of auranofin on BH2 and BH4 production in intact HaCaT cells treated with sepiapterin. HaCaT cells (~1 × 10^6 cells/well in 6 well culture plates) were incubated with control medium or medium containing increasing concentrations of auranofin for 2 h followed by 100 μM sepiapterin. After an additional 3 h, BH2 and BH4 were extracted from the cells and analyzed by HPLC with fluorescence detection. Left panel: Chromatograms showing BH2 and BH4 content of control cells and cells treated with Auranofin.
Fig. 6. […] Cells were treated with control medium or medium containing MTX (1 μM, 2 h), an inhibitor of DHFR, followed by 200 μM sepiapterin (upper panel) or BH2 (lower panel). After an additional 3 h incubation, cells were rinsed with PBS; BH2 and BH4 were then extracted and analyzed by HPLC as described in the Materials and Methods.

With `CN(Cc1cnc2nc(N)nc(N)c2n1)c1ccc(C(=O)N[C@@H](CCC(=O)O)C(=O)O)cc1` [methotrexate] as the molecule, how does the “effect on formation of BH4 from sepiapterin in HaCaT cells” value read?
The value was “inhibit the formation of BH4 from sepiapterin”.
